Laboratory results as given in patent US12150995B2, “IRAK degraders and uses thereof” (Kymera Therapeutics, Inc., priority 2020, dated 2024).

Molecular target: T1, IRAK4 (Homo sapiens, UniProt Q9NWZ3)
T1 construct: endogenous in cells; host or cells: OCI-LY10
T1 sequence (Q9NWZ3 1-460): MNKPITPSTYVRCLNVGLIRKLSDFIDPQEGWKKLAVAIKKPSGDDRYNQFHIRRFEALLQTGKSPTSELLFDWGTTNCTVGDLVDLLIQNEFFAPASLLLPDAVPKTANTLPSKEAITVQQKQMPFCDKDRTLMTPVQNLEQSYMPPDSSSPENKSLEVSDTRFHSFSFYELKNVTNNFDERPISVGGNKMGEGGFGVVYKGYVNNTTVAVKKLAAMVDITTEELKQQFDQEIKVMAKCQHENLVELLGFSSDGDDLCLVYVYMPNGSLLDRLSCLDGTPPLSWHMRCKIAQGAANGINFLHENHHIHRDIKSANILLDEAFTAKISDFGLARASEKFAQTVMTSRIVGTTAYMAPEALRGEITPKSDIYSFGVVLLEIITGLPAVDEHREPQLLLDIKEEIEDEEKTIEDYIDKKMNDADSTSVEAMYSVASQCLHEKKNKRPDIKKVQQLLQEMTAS
Experiment: IRAK4 MSD Degradation in OCI-LY10
Type: cell-based
Details: OCI-LY10 cells, Meso Scale Discovery, incubated 4 to 24 hours
Protocol: Degradation of IRAK4 in OCI-LY10 was quantitatively measured using Meso Scale Discovery technology. OCI-LY10 cells were seeded in 96-well plates (Corning 3799) with a density of 300,000 cells per well in 100 μL fresh media. Compounds were then added to the assay plates with a final top concentration of 1 to 10 μM in a 1:3 dilution series with total of 8 doses. The assay plates were then incubated for 4 to 24 hours at 37° C. under 5% CO2. The assay plates were then centrifuged for 5 minutes and the cell pellets were treated with 100 μL/well RIPA lysis buffer (Boston BioProducts BP-115D) with proteinase inhibitors. To prepare MSD assay plates (Meso Scale Discovery Catalog number L15XA-3), the plates were coated with 2 μg/mL capture antibody (mouse Anti-IRAK4 antibody [2H9], ab119942) in PBS, at 40 μL/well. The plates were then incubated overnight at 4° C., washed 3 times with 150 μL/well TBST buffer (Cell Signaling Technology, Catalog number 9997S) and blocked with 150 μL/well blocking buffer (Meso Scale Discovery Catalog number R93BA-4). Cell lysates were then added to MSD assay plates and the plates were incubated at room temperature for 1 hour. The plates were then washed 3 times with 150 μL/well TBST buffer and […] primary detection antibody (rabbit Anti-IRAK4 antibody [Y279], from Abcam. Catalog number ab32511, 1 μg/mL). The assay plates were then incubated at room temperature for 1 hour, washed 3 times with 150 μL/well TBST buffer and 254/well secondary detection antibody, SULFO-TAG anti-rabbit antibody were added (anti rabbit antibody from Meso Scale Discovery, Catalog number R32AB-1, 1 μg/mL). The assay plates were then incubated at room temperature for 1 hour, washed 3 times with 150 μL/well TBST buffer, and 150 μL/well MSD reading buffer (Meso Scale Discovery catalog number R92TC-2) was added. The plates were then analyzed by a MSD reader (Meso Scale Discovery, Model Quick Plex SQ 120). The data was then analyzed by software Prism 7.0 from GraphPad and the dose-depended IRAK4 degradation were fit using a three-parameter logistic equation to calculate DC50.
The letter codes for IRAK4 DC50 include: A (<0.01 μM); B (0.01-0.05 μM); C (0.05-0.1 μM); D (0.1-0.2 μM); and E (>0.2 μM).

Row | SMILES | DC50 [µM]
1 | O=C1CCC(N2C(=O)c3cccc(NCCC4CC5(C4)CN(C[C@H]4CC[C@H](n6cc7cc(NC(=O)c8cccc(C(F)(F)F)n8)c(OC8CC8)cc7n6)CC4)C5)c3C2=O)C(=O)N1 (stereo partly shown) [I-2] | > 0.2
2 | O=C1CCN(c2cncc3cc(C4CCN(C[C@H]5CC[C@H](c6nc7ccc(NC(=O)c8cccc(C(F)(F)F)n8)cc7s6)CC5)CC4)ccc23)C(=O)N1 [I-181] | > 0.2
3 | COc1cc2nn([C@H]3CC[C@H](CN(C)C4CCN(c5cc(Cl)cc6c5n(C)c(=O)n6C5CCC(=O)NC5=O)CC4)CC3)cc2cc1NC(=O)c1cccc(C(F)(F)F)n1 (stereo partly shown) [I-54] | < 0.01
4 | COc1cc2nn([C@H]3CC[C@H](CN4CCC(c5cccc6c(N7CCC(=O)NC7=O)cncc56)CC4)CC3)cc2cc1NC(=O)c1cc(F)cc(C(F)(F)F)c1 [I-123] | 0.01 to 0.05
5 | O=C1CCN(c2cncc3c(C4CCN(C[C@H]5CC[C@H](n6cc7cc(NC(=O)c8cccc(C(F)(F)F)n8)ncc7n6)CC5)CC4)cccc23)C(=O)N1 [I-103] | 0.01 to 0.05
6 | C[C@@H]1CN(c2cccc3c2n(C)c(=O)n3C2CCC(=O)NC2=O)CCN1C[C@H]1CC[C@H](n2cc3cc(NC(=O)c4cccc(C(F)(F)F)n4)ccc3n2)CC1 (stereo partly shown) [I-163] | < 0.01
7 | COc1cc(NC(=O)c2cccc(C(F)(F)F)n2)cc2cn([C@H]3CC[C@H](CN4CCN(c5cccc6c5n(C)c(=O)n6C5CCC(=O)NC5=O)CC4)CC3)nc12 (stereo partly shown) [I-218] | < 0.01
8 | Cn1c(=O)n(C2CCC(=O)NC2=O)c2cccc(C3CCN(C[C@H]4CC[C@H](n5cc6cc(NC(=O)c7cnccn7)c(F)cc6n5)CC4)CC3)c21 (stereo partly shown) [I-49] | > 0.2
9 | CC(C)Nc1cc(-n2ccc3cc(C#N)cnc32)ncc1-c1cn([C@H]2CC[C@H](CN3CCC(c4cccc5c4n(C)c(=O)n5C4CCC(=O)NC4=O)CC3)CC2)nn1 (stereo partly shown) [I-159] | < 0.01
10 | CC(C)(O)c1cc2nn([C@H]3CC[C@H](CN4C5CC4CN(c4cccc6c(N7CCC(=O)NC7=O)cncc46)C5)CC3)cc2cc1NC(=O)c1cccc(C(F)(F)F)n1 [I-228] | < 0.01
11 | COc1cc2nn([C@H]3CC[C@H](CN4CCN(c5cccc6c(N7CCC(=O)NC7=O)cncc56)CC4)CC3)cc2cc1NC(=O)c1cccc(C(F)(F)F)n1 [I-211] | < 0.01
12 | COc1cc2nn([C@H]3C[C@@H](CN(C)C4CCN(c5cccc6c5n(C)c(=O)n6C5CCC(=O)NC5=O)CC4)C3)cc2cc1NC(=O)c1cccc(C(F)(F)F)n1 (stereo partly shown) [I-32, N-[2-[3-[[[1-[1-(2,6-dioxo-3-piperidyl)-3-methyl-2-oxo-benzimidazol-4-yl]-4-piperidyl]-methyl-amino]methyl]cyclobutyl]-6-methoxy-indazol-5-yl]-6-(trifluoromethyl)pyridine-2-carboxamide] | < 0.01
13 | COc1cc2nn([C@H]3CC[C@H](CN(C)C4CCN(c5cccc6c5n(C)c(=O)n6C5CCC(=O)NC5=O)CC4)CC3)cc2cc1NC(=O)c1cncc(Cl)c1 (stereo partly shown) [I-80] | < 0.01
14 | CC(C)Nc1cc(-c2ccc3cc(C#N)cnn23)ncc1C(=O)N[C@H]1CC[C@H](CN2CCC(c3cccc4c(N5CCC(=O)NC5=O)cncc34)CC2)CC1 [I-184] | < 0.01
15 | CN(C[C@H]1C[C@H](n2cc3cc(NC(=O)c4cccc(C(F)(F)F)n4)c(C(F)F)cc3n2)C1)C1CCN(c2cccc3c2n(C)c(=O)n3C2CCC(=O)NC2=O)CC1 (stereo partly shown) [I-139] | 0.01 to 0.05
16 | COc1cc2nn([C@H]3CC[C@H](CN4CCC(c5ccc6c(c5Cl)n(C)c(=O)n6C5CCC(=O)NC5=O)CC4)CC3)cc2cc1NC(=O)c1cccc(C(F)(F)F)n1 (stereo partly shown) [I-177] | < 0.01
17 | COc1cc2nn([C@H]3CC[C@H](CN(C)C4CCN(c5c(C)ccc6c5n(C)c(=O)n6C5CCC(=O)NC5=O)CC4)CC3)cc2cc1NC(=O)c1cccc(C(F)(F)F)n1 (stereo partly shown) [I-40] | 0.01 to 0.05
18 | CN(CCn1cc2cc(NC(=O)c3cccc(C(F)(F)F)n3)c(F)cc2n1)C1CCN(c2cccc3c2n(C)c(=O)n3C2CCC(=O)NC2=O)CC1 (stereo not shown) [I-19, N-[2-[2-[[1-[1-(2,6-dioxo-3-piperidyl)-3-methyl-2-oxo-benzimidazol-4-yl]-4-piperidyl]-methyl-amino]ethyl]-6-fluoro-indazol-5-yl]-6-(trifluoromethyl)pyridine-2-carboxamide] | > 0.2

Other lines, results leading:

Row | DC50 [µM] | SMILES
19 | 0.1 to 0.2 | CC(C)(O)c1cc2nc([C@H]3CC[C@H](C(=O)N4CCC5(CC4)CC(CCNc4cccc6c4C(=O)N(C4CCC(=O)NC4=O)C6=O)C5)CC3)sc2cc1NC(=O)c1cccc(C#N)n1 (stereo partly shown) [I-430]
20 | < 0.01 | COc1cc2nn([C@H]3CC[C@H](CN4CC[C@H](c5cccc6c5n(C)c(=O)n6C5CCC(=O)NC5=O)CC4(C)C)CC3)cc2cc1NC(=O)c1cccc(C(F)(F)F)n1 (single isomer, unassigned) [I-292]
21 | > 0.2 | COc1cc2nc([C@H]3CC[C@H](CN(C)CCNc4cccc5c4C(=O)N(C4CCC(=O)NC4=O)C5=O)CC3)sc2cc1NC(=O)c1cncc(Cl)c1 (stereo partly shown) [I-484]
22 | 0.05 to 0.1 | CC(C)(O)c1cc2nc([C@H]3CC[C@H](C(=O)N4CCC(CCNc5cccc6c5C(=O)N(C5CCC(=O)NC5=O)C6=O)CC4)CC3)sc2cc1NC(=O)c1cccc(C(F)(F)F)n1 (stereo partly shown) [I-491]
23 | 0.01 to 0.05 | CC(C)(O)c1cc2nc([C@H]3CC[C@H](CN4CCN(CCNc5cccc6c5C(=O)N(C5CCC(=O)NC5=O)C6=O)CC4)CC3)sc2cc1NC(=O)c1cccc(C#N)n1 (stereo partly shown) [I-441]
24 | > 0.2 | COc1cc2nc([C@H]3CC[C@H](CN(C)CCCNc4cccc5c4C(=O)N(C4CCC(=O)NC4=O)C5=O)CC3)sc2cc1NC(=O)c1cncc(F)c1 (stereo partly shown) [I-482]
25 | < 0.01 | CC(C)c1cc2nn([C@H]3CC[C@H](CN4CCN(c5cccc6c5n(C)c(=O)n6C5CCC(=O)NC5=O)CC4)CC3)cc2cc1NC(=O)c1cccc(C(F)(F)F)n1 (stereo partly shown) [I-397]
26 | < 0.01 | Cc1cc2nn([C@H]3CC[C@H](CN4CCN(c5cccc6c5n(C)c(=O)n6C5CCC(=O)NC5=O)C[C@@H]4C)CC3)cc2cc1NC(=O)c1cccc(C(F)(F)F)n1 (stereo partly shown) [I-301]
27 | 0.01 to 0.05 | C=C/C(NCCCN1CCN(C[C@H]2CC[C@H](c3nc4cc(C(C)(C)O)c(NC(=O)c5cccc(C)n5)cc4s3)CC2)C[C@@H]1C)=C1/C(=O)N(C2CCC(=O)NC2=O)C(=O)/C1=C/C (stereo partly shown) [I-443]
28 | < 0.01 | CCc1cc2nn([C@H]3CC[C@H](CN4CCN(c5cccc6c5n(C)c(=O)n6C5CCC(=O)NC5=O)CC4)CC3)cc2cc1NC(=O)c1cccc(C(F)(F)F)n1 (stereo partly shown) [I-378]
29 | < 0.01 | COc1cc2nn([C@H]3CC[C@H](CN4CC=C(c5ccc6c(c5)n(C)c(=O)n6C5CCC(=O)NC5=O)C4)CC3)cc2cc1NC(=O)c1cccc(C(F)(F)F)n1 (stereo partly shown) [I-366]
30 | 0.01 to 0.05 | CN(CCNc1cccc2c1C(=O)N(C1CCC(=O)NC1=O)C2=O)C[C@H]1CC[C@H](c2nc3cc(C(C)(C)O)c(NC(=O)c4cccc(C(F)(F)F)n4)cc3s2)CC1 (stereo partly shown) [I-492]
31 | < 0.01 | Cc1cc2nn([C@H]3CC[C@H](CN4CCN(c5cccc6c5n(C)c(=O)n6C5CCC(=O)NC5=O)CC4)CC3)cc2cc1NC(=O)c1cncc(C(F)(F)F)n1 (stereo partly shown) [I-401]
32 | < 0.01 | COc1cc2nn([C@H]3CC[C@H](CN4CCCN(c5ccc6c(N7CCC(=O)NC7=O)cncc6c5)CC4)CC3)cc2cc1NC(=O)c1cccc(C(F)(F)F)n1 [I-356]
33 | 0.01 to 0.05 | Cc1cc2nn([C@H]3CC[C@H](CN4CCN(c5cccc6c(N7CCC(=O)NC7=O)cncc56)CC4)CC3)cc2cc1NC(=O)c1cccc(C(F)(F)F)n1 [I-261]
34 | < 0.01 | COc1cc2nn([C@H]3CC[C@H](CN4CCCN(c5cccc6c5n(C)c(=O)n6C5CCC(=O)NC5=O)CC4)CC3)cc2cc1NC(=O)c1cccc(C(F)(F)F)n1 (stereo partly shown) [I-255]
35 | 0.01 to 0.05 | Cc1cc2nn([C@H]3CC[C@H](CN4CCN(c5cccc6c5n(C5CC5)c(=O)n6C5CCC(=O)NC5=O)CC4)CC3)cc2cc1NC(=O)c1cccc(C(F)(F)F)n1 (stereo partly shown) [I-304]
36 | 0.01 to 0.05 | CN(Cc1ccc(-n2cc3cc(NC(=O)c4cccc(C(F)(F)F)n4)c(C(C)(C)O)cc3n2)cc1)[C@H]1CC[C@H](Nc2cccc3c2C(=O)N(C2CCC(=O)NC2=O)C3=O)CC1 (stereo partly shown) [I-463]
37 | < 0.01 | Cc1cccc(C(=O)Nc2cc3sc([C@H]4CC[C@H](CN5C[C@H]6C[C@@H]5CN6CCNc5cccc6c5C(=O)N(C5CCC(=O)NC5=O)C6=O)CC4)nc3cc2C(C)(C)O)n1 (stereo partly shown) [I-475]
